Test results reported in patent US12479847B2 (DANA-FARBER CANCER INSTITUTE, INC., priority 2019, dated 2025).

Key:
Test in all cases: KINOMEscan (ScanMAX) kinase profiling
Type in all cases: binding
[1] = molecular target: T1, panel of 468 kinases (Homo sapiens, UniProt P10721, A829P); details: KIT(A829P); 1 μM; read-out: % control
T1 construct: purchased KINOMEscan (ScanMAX) service

[2] = molecular target: T2, panel of 468 kinases (Homo sapiens, UniProt P25098); details: GRK2; 1 μM; read-out: % control
T2 construct: purchased KINOMEscan (ScanMAX) service
T2 sequence (P25098 1-689): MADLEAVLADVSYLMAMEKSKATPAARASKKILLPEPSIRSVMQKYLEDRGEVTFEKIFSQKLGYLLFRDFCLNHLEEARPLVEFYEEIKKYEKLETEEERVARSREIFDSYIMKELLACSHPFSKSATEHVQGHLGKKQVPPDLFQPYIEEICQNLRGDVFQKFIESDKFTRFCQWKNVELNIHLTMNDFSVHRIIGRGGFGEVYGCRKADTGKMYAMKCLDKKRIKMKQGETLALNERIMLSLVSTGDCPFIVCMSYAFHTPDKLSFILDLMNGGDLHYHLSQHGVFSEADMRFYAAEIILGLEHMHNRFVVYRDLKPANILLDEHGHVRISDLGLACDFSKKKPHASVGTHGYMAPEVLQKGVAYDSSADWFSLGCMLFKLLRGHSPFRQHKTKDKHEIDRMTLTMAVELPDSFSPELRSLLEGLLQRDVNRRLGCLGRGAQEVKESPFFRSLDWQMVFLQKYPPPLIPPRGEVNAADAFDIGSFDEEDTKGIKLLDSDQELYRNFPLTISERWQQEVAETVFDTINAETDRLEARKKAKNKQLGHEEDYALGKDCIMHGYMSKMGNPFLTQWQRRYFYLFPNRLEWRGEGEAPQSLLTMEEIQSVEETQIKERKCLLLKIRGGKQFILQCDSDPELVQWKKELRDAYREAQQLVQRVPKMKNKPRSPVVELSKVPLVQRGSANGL

[3] = molecular target: T3, panel of 468 kinases (Homo sapiens, UniProt P49840); details: GSK3A; 1 μM; read-out: % control
T3 construct: purchased KINOMEscan (ScanMAX) service
T3 sequence (P49840 whole entry): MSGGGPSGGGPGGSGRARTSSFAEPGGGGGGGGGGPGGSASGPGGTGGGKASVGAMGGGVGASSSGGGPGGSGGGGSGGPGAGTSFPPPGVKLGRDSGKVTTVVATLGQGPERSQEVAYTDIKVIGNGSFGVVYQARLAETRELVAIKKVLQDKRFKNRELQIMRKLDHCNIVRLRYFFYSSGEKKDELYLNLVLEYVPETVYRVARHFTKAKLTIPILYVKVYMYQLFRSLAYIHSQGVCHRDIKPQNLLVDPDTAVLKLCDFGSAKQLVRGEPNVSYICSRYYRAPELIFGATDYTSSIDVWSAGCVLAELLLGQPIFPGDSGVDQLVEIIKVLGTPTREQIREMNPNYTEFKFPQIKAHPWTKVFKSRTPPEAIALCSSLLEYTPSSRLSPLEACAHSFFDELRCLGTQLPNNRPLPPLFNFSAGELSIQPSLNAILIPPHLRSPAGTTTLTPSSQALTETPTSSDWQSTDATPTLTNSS

[4] = molecular target: T4, panel of 468 kinases (Homo sapiens, UniProt Q12866); details: MERTK; 1 μM; read-out: % control
T4 construct: purchased KINOMEscan (ScanMAX) service
T4 sequence (Q12866 21-999): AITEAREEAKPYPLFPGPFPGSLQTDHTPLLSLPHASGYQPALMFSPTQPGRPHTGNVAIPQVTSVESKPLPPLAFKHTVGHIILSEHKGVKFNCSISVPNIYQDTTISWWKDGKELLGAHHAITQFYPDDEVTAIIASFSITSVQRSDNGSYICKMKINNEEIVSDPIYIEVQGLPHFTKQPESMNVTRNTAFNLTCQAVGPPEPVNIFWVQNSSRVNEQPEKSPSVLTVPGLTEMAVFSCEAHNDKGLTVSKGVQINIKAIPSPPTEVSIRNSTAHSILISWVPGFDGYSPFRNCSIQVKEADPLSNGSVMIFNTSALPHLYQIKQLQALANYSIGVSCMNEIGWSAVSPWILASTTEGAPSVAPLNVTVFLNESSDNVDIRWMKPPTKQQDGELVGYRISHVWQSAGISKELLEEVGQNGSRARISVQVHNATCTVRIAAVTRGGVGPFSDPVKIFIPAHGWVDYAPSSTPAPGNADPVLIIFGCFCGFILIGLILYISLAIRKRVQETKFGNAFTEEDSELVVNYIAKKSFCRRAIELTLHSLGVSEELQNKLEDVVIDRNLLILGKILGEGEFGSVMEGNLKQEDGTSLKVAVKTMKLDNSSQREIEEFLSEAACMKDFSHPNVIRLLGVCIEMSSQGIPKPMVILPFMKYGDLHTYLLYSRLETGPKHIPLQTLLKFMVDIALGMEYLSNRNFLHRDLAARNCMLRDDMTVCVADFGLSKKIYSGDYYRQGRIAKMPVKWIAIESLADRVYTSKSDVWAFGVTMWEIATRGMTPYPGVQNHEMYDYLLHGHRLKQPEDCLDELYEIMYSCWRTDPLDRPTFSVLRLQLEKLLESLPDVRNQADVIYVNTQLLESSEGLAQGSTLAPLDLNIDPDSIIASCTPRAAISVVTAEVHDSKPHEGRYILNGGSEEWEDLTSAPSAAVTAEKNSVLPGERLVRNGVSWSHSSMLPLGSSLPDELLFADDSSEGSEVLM

[5] = molecular target: T5, panel of 468 kinases (Homo sapiens, UniProt Q8TDC3); details: BRSK1; 1 μM; read-out: % control
T5 construct: purchased KINOMEscan (ScanMAX) service
T5 sequence (Q8TDC3 1-778): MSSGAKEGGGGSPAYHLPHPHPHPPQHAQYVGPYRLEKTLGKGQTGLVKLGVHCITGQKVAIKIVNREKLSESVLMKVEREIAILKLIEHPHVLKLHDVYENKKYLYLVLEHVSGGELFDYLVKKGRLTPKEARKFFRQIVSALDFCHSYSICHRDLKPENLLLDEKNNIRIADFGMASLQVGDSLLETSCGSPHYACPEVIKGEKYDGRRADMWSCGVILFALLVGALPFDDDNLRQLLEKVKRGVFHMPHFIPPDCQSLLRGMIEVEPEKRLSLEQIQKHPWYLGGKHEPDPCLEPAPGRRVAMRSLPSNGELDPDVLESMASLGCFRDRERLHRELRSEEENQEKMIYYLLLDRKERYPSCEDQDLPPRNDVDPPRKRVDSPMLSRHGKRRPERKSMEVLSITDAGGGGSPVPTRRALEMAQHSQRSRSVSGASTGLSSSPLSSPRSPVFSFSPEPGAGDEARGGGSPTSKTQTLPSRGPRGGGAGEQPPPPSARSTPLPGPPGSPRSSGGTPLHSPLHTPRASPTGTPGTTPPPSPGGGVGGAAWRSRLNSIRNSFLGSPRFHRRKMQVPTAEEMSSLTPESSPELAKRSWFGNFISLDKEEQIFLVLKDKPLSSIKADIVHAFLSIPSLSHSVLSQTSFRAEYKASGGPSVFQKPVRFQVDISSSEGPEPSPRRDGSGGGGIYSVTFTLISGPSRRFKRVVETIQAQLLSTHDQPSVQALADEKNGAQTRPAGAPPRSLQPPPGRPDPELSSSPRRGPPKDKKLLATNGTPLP

T1 sequence (P10721 26-976 A829P): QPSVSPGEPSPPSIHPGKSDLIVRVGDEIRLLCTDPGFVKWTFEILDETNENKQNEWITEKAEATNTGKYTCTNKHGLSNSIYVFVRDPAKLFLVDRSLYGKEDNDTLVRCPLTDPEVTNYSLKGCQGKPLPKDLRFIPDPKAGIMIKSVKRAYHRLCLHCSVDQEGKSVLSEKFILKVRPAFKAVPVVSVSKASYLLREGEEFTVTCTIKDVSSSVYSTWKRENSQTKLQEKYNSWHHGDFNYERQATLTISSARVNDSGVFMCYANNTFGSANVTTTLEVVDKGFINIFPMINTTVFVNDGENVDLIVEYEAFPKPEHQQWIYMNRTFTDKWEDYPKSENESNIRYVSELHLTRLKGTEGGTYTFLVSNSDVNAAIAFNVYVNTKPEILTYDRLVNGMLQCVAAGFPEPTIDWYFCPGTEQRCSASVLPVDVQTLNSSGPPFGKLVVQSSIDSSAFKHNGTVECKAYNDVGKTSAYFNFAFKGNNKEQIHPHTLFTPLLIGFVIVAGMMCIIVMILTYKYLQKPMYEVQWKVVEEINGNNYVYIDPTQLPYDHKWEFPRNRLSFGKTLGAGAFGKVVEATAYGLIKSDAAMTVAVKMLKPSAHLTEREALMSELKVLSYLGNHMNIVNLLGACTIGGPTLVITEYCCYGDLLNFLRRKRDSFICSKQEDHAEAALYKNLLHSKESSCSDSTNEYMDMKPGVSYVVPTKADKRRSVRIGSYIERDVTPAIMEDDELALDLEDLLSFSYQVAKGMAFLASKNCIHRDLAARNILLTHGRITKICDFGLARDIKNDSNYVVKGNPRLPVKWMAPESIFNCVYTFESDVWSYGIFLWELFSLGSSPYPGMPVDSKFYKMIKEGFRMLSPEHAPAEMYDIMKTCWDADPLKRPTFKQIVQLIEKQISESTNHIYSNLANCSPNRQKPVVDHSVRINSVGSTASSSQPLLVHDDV

SMILES	remaining binding at 1 µM [1] [%]	remaining binding at 1 µM [2] [%]	remaining binding at 1 µM [3] [%]	remaining binding at 1 µM [4] [%]	remaining binding at 1 µM [5] [%]
CNc1nc(Nc2ccc(S(=O)(=O)N3CCC(N4CCOCC4)CC3)cc2OC)nc2[nH]cc(Cl)c12 [Compound 12, 5-chloro-N2-(2-methoxy-4-((4-morpholinopiperidin-1-yl)sulfonyl)phenyl)-N4-methyl-7H-pyrrolo[2,3-d]pyrimidine-2,4-diamine]	76	100	91	96	100
CNc1nc(Nc2ccc(C(=O)N3CCC(N4CCOCC4)CC3)c3c2OCO3)nc2[nH]cc(Cl)c12 [Compound 75, (7-((5-chloro-4-(methylamino)-7H-pyrrolo[2,3-d]pyrimidin-2-yl)amino)benzo[d][1,3]dioxol-4-yl)(4-morpholinopiperidin-1-yl)methanone]	50	100	87	85	100
CNc1nc(Nc2ccc(P3(=O)CCN(C4CCOCC4)CC3)cc2OC)nc2[nH]cc(Cl)c12 [Compound 77, 4-(4-((5-chloro-4-(methylamino)-7H-pyrrolo[2,3-d]pyrimidin-2-yl)amino)-3-methoxyphenyl)-1-(tetrahydro-2H-pyran-4-yl)-1,4-azaphosphinane 4-oxide]	78	98	90	98	96
